Results from patent publication US20080269267A1, “KINASE INHIBITORS USEFUL FOR THE TREATMENT OF MYLEOPROLIFIC DISEASES AND OTHER PROLIFERATIVE DISEASES” (Deciphera Pharmaceuticals, LLC, priority 2007, published 2008).
Changes are numbered by the printed parent chain. Structures can show the parent of a compound that is named as a salt.

Columns and labels:
[1] = target: T1, Abl kinase (SEQ ID NO:1) (Homo sapiens, UniProt P00519); assay: Abl kinase assay (pyruvate kinase/lactate dehydrogenase coupled, ADP production); conditions: 2 h preincubation at 30° C., ATP 500 μM; read-out: Abl Enzyme Assay, biochemical IC50
T1 construct: purchased deCode Genetics
T1 sequence (P00519 with tags, fused parts or gaps): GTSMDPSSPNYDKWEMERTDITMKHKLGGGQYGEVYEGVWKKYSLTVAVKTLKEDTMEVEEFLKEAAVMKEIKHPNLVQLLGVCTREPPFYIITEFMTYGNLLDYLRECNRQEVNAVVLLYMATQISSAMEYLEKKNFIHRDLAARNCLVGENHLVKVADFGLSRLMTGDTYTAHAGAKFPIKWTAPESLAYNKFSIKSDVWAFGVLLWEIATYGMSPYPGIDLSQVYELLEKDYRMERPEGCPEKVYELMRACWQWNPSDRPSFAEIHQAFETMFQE
Procedure: Abl Kinase (SEQ ID NO:1) Assay
Activity of Abl kinase (SEQ ID NO:1) was determined by following the production of ADP from the kinase reaction through coupling with the pyruvate kinase/lactate dehydrogenase system (e.g., Schindler, et al. Science (2000) 289, 1938-1942). In this assay, the oxidation of NADH (thus the decrease at A340nm) was continuously monitored spectrophometrically. The reaction mixture (100 μl) contained Abl kinase (1 nM. Abl from deCode Genetics), peptide substrate (EAIYAAPFAKKK. 0.2 mM), MgCl2 (10 mM), pyruvate kinase (4 units), lactate dehydrogenase (0.7 units), phosphoenol pyruvate (1 mM), and NADH (0.28 mM) in 90 mM Tris buffer containing 0.2% octyl-glucoside and 3.5% DMSO, pH 7.5. Test compounds were incubated with Abl (SEQ ID NO:1) and other reaction reagents at 30° C. for 2 h before ATP (500 μM) was added to start the reaction. The absorption at 340 nm was monitored continuously for 2 hours at 30° C. on Polarstar Optima plate reader (BMG). The reaction rate was calculated using the 1.0 to 2.0 h time frame. Percent inhibition was obtained by comparison of reaction rate with that of a control (i.e. with no test compound). IC50 values were calculated from a series of percent inhibition values determined at a range of inhibitor concentrations using software routines as implemented in the GraphPad Prism software package.

[2] = target: B-Raf(V600E) kinase (SEQ ID NO:11) (Homo sapiens, UniProt P15056, V600E); assay: B-Raf(V600E) kinase assay (pyruvate kinase/lactate dehydrogenase coupled, MEK1 substrate); conditions: 1 h preincubation at 30° C., ATP 0.2 mM; read-out: B-Raf V600E Enzyme Assay, biochemical IC50
Procedure: B-Raf(V600E) Kinase Assay
The activity of B-Raf(V600E) kinase (SEQ ID NO:11) was determined by following the formation of ADP from the reaction through coupling with the pyruvate kinase/lactate dehydrogenase system (e.g., Schindler, et al. Science (2000) 289, 1938-1942). In this assay, the oxidation of NADH (thus the decrease at A340nm) was continuously monitored spectrophotometrically. The reaction mixture (100 μl) contained B-Raf(V600E) kinase (0.34 nM nominal concentration, SEQ ID NO:11), unphosphorylated, full-length MEK1 (42 nM, SEQ ID NO:12), MgCl2 (13 mM), pyruvate kinase (3.5 units), lactate dehydrogenase (5.5 units), phosphoenolpyruvate (1 mM), and NADH (0.28 mM), in 60 mM Tris buffer, containing 0.13% octyl-glucoside and 3.5% DMSO concentration at pH 7.5. The test compounds were incubated with the reaction mixture at 30° C. for 1 h. The reaction was initiated by adding ATP (0.2 mM, final concentration). The absorption at 340 nm was continuously monitored for 3 h at 30° C. on a Polarstar Optima plate reader (BMG). The reaction rate was calculated using the 0.5 h to 1.5 h time frame. Percent inhibition was obtained by comparison of reaction rate with that of a control (i.e. with no test compound). IC50 values were calculated from a series of percent inhibition values determined at a range of inhibitor concentrations using software routines as implemented in the GraphPad Prism software package.

[3] = target: T2, C-Met kinase (SEQ ID NO:10) (Homo sapiens, UniProt P08581); assay: C-Met kinase assay (pyruvate kinase/lactate dehydrogenase coupled); conditions: 0.5 h preincubation at 22° C., ATP 100 μM; read-out: c-Met Enzyme Assay, biochemical IC50
T2 construct: purchased Invitrogen PV3143
Procedure: C-Met Kinase (SEQ ID NO:10) Assay
Activity of C-Met kinase (SEQ ID NO:10) was determined by following the production of ADP from the kinase reaction through coupling with the pyruvate kinase/lactate dehydrogenase system (e.g., Schindler, et al. Science (2000) 289, 1938-1942). In this assay, the oxidation of NADH (thus the decrease at A340 nm) was continuously monitored spectrophometrically. The reaction mixture (100 μl) contained C-Met (c-Met residues; 956-1390, from Invitrogen, catalogue #PV3143, 6 nM), polyE4Y (1 mg/ml), MgCl2 (10 mM), pyruvate kinase (4 units), lactate dehydrogenase (0.7 units), phosphoenol pyruvate (1 mM), and NADH (0.28 mM) in 90 mM Tris buffer containing 0.25 mM DTT, 0.2% octyl-glucoside and 1% DMSO, pH 7.5. Test compounds were incubated with C-Met (SEQ ID NO:10) and other reaction reagents at 22° C. for 0.5 h before ATP (100 μM) was added to start the reaction. The absorption at 340 n=was monitored continuously for 2 hours at 30° C. on Polarstar Optima plate reader (BMG). The reaction rate was calculated using the 1.0 to 2.0 h time frame. Percent inhibition was obtained by comparison of reaction rate with that of a control (i.e. with no test compound). IC50 values were calculated from a series of percent inhibition values determined at a range of inhibitor concentrations using software routines as implemented in the GraphPad Prism software package.

[4] = target: T3, BaF3 cells transfected with wild type p210 BCR-Abl (Homo sapiens, UniProt P00519); assay: Ba/F3 p210 whole cell proliferation assay (Cell Titer Blue, 72 hours); type: cell-based; conditions: 72 hours incubation; read-out: Ba/F3 p210 whole cell proliferation assay, antiproliferation IC50
T3 construct: fused on or other part: P11274 (Breakpoint cluster region protein)
Procedure: (§1) BaF3 cells (parental or transfected with the following: wild type p210 BCR-Abl and T315I p210 BCR-Abl was obtained from Professor Richard Van Etten (New England Medical Center, Boston, Mass.). Briefly, cells were grown in RPMI 1640 supplemented with 10% characterized fetal bovine serum (HyClone, Logan, Utah) at 37 degrees Celsius, 5% CO2, 95% humidity. Cells were allowed to expand until reaching 80% saturation at which point they were subcultured or harvested for assay use.
(§2) A serial dilution of test compound was dispensed into a 96 well black clear bottom plate (Corning, Corning, N.Y.). For each cell line, three thousand cells were added per well in complete growth medium. Plates were incubated for 72 hours at 37 degrees Celsius, 5% CO2, 95% humidity. At the end of the incubation period Cell Titer Blue (Promega, Madison, Wis.) was added to each well and an additional 4.5 hour incubation at 37 degrees Celsius, 5% CO2, 95% humidity was performed. Plates were then read on a BMG Fluostar Optima (BMG, Durham, N.C.) using an excitation of 544 nm and an emission of 612 nm. Data was analyzed using Prism software (Graphpad, San Diego, Calif.) to calculate IC50's.

[5] = target: T4, BaF3 cells transfected with T315I p210 BCR-Abl (Homo sapiens, UniProt P00519, T315I, cells depend on it); assay: Ba/F3 p210 T315I whole cell proliferation assay (Cell Titer Blue, 72 hours); type: cell-based; conditions: 72 hours incubation; read-out: Ba/F3 p210 T315I whole cell proliferation assay, antiproliferation IC50
T4 construct: fused on or other part: P11274 (Breakpoint cluster region protein)
Procedure: as §1, §2

[6] = target: T5, T315I Abl kinase (SEQ ID NO:2) (Homo sapiens, UniProt P00519, T315I); assay: T315I Abl kinase assay (pyruvate kinase/lactate dehydrogenase coupled); conditions: 1 h preincubation at 30° C., ATP 500 μM; read-out: Abl T315l Enzyme Assay, biochemical IC50
T5 construct: purchased deCode Genetics
T5 sequence (P00519 with tags, fused parts or gaps T315I): T1 sequence (P00519 with tags, fused parts or gaps) with T94I
Procedure: Abl Kinase (SEQ ID NO:2) Assay
Activity of T315I Abl kinase (SEQ ID NO:2) was determined by following the production of ADP from the kinase reaction through coupling with the pyruvate kinase/lactate dehydrogenase system (e.g., Schindler, et al. Science (2000) 289, 1938-1942). In this assay, the oxidation of NADH (thus the decrease at A340nm) was continuously monitored spectrophometrically. The reaction mixture (100 μl) contained Abl kinase (4.4 nM. […] Abl from deCode Genetics), peptide substrate (EAIYAAPFAKKK, 0.2 mM), MgCl2 (10 mM), pyruvate kinase (4 units), lactate dehydrogenase (0.7 units), phosphoenol pyruvate (1 mM), and NADH (0.28 mM) in 90 mM Tris buffer containing 0.2% octyl-glucoside and 1% DMSO, pH 7.5. Test compounds were incubated with T315I Abl (SEQ ID NO:2) and other reaction reagents at 30° C. for 1 h before ATP (500 μM) was added to start the reaction. The absorption at 340 nm was monitored continuously for 2 hours at 30° C. on Polarstar Optima plate reader (BMG). The reaction rate was calculated using the 1.0 to 2.0 h time frame. Percent inhibition was obtained by comparison of reaction rate with that of a control (i.e. with no test compound). IC50 values were calculated from a series of percent inhibition values determined at a range of inhibitor concentrations using software routines as implemented in the GraphPad Prism software package.

B-Raf(V600E) kinase (SEQ ID NO:11), sequence (P15056 with tags, fused parts or gaps V600E): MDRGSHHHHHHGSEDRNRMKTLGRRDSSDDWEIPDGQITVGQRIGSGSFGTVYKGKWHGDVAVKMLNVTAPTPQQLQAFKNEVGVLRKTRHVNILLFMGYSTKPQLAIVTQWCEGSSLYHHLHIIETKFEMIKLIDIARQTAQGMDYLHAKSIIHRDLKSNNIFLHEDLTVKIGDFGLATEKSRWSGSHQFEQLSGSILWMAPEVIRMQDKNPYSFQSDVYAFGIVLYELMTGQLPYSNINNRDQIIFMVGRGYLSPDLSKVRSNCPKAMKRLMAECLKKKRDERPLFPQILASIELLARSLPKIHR
T2 sequence (P08581 with tags, fused parts or gaps): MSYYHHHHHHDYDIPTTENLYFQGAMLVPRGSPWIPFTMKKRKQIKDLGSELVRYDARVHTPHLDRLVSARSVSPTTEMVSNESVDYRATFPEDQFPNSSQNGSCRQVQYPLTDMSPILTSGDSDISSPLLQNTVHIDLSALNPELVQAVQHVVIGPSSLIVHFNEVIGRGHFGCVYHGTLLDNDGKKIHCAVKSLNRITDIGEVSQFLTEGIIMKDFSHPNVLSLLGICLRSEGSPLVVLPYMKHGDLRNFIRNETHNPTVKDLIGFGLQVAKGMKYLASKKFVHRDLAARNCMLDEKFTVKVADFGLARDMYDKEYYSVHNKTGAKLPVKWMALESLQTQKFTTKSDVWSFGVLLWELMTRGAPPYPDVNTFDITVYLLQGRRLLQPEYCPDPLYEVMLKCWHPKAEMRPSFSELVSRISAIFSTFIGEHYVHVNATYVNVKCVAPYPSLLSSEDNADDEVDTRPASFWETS

Row | SMILES | IC50 [1] | IC50 [2] | IC50 [3] | GI50 [4] | GI50 [5] | IC50 [6]
1 | CCCn1cc(-c2cc(Oc3ccc(NC(=O)Nc4cc(CC)nn4-c4cccc(C#N)c4)c(F)c3)ccn2)cn1 [Example 15, 1-(1-(3-cyanophenyl)-S-ethyl-1H-pyrazol-5-yl)-3-(2-fluoro-4-(2-(1-propyl-1H-pyrazol-4-yl)pyridin-4-yloxy)phenyl)urea] | < 100 nM | < 1000 nM | < 1000 nM | < 100 nM | < 100 nM | 
2 | Cn1cc(-c2cc(Oc3ccc(NC(=O)Nc4cc(C(C)(C)C)nn4-c4ccccc4)c(F)c3)ccn2)cn1 [Example 1, 1-(3-t-butyl-1-phenyl-1H-pyrazol-5-yl)-3-(2-fluoro-4-(2-(1-methyl-1H-pyrazol-4-yl)pyridin-4-yloxy)phenyl)urea] | < 100 nM |  | < 100 nM | < 100 nM | < 100 nM | < 100 nM
3 | CCc1cc(NC(=O)Nc2ccc(Oc3ccnc(-c4cnn(CC)c4)c3)cc2F)n(-c2cccc(C#N)c2)n1 [Example 18, 1-(1-(3-cyanophenyl)-3-ethyl-1H-pyrazol-5-yl)-3-(4-(2-(1-ethyl-1H-pyrazol-4-yl)pyridin-4-yloxy)-2-fluorophenyl)urea] | < 100 nM | < 1000 nM | < 1000 nM | < 100 nM | < 100 nM | 

Further lines, results first:

Row | IC50 [1] | IC50 [2] | IC50 [3] | GI50 [4] | GI50 [5] | IC50 [6] | SMILES
4 | < 1000 nM | < 10000 nM |  |  |  |  | CCn1ncc(NC(=O)Nc2ccc(Oc3ccnc(-c4cnn(C)c4)c3)cc2F)c1-c1ccccc1 [Example 22, 1-(1-ethyl-5-phenyl-1H-pyrazol-4-yl)-3-(2-fluoro-4-(2-(1-methyl-1H-pyrazol-4-yl)pyridin-4-yloxy)phenyl)urea hydrochloride]
5 | < 100 nM | < 10000 nM |  |  |  |  | CCn1cc(NC(=O)Nc2ccc(Oc3ccnc(-c4cnn(C)c4)c3)cc2F)c(-c2ccccc2)n1 [Example 23, 1-(1-ethyl-3-phenyl-1H-pyrazol-4-yl)-3-(2-fluoro-4-(2-(1-methyl-1H-pyrazol-4-yl)pyridin-4-yloxy)phenyl)urea hydrochloride]
6 | < 100 nM | < 10000 nM |  | < 100 nM | < 1000 nM |  | CC(C)n1ncc(NC(=O)Nc2ccc(Oc3ccnc(-c4cnn(C)c4)c3)cc2F)c1-c1ccccc1 [Example 20, 1-(2-fluoro-4-(2-(1-methyl-1H-pyrazol-4-yl)pyridin-4-yloxy)phenyl)-3-(1-isopropyl-5-phenyl-1H-pyrazol-4-yl)urea]
